# Measurements taken from patent publication US10736317B2, “Composition having sex pheromone activity on San Jose scale, and attractant, mating disruptant, attraction method and mating disruption method for San Jose scale” (SHIN-ETSU CHEMICAL CO., LTD., priority 2017, dated 2020).
# Test system: SJS male adult insects
# Assay: SJS attraction test (white adhesive trap, orchard)
# Type: in vivo, Quadraspidiotus perniciosus (San Jose scale)
# Settings: conclusion from trap captures
# From the text: <Evaluation of Sex Pheromone Activity (SJS Attraction Test)> A white adhesive trap was used for evaluation of the sex pheromone activity. […] An adhesive material was applied over the bottom plate, and the attractant, which is shown as “A” in FIG. 1, was placed directly on the adhesive surface. In other words, it is configured to capture only insects that have approached the attractant, whereby keeping unintentional admission of insects as low as possible. In a period of from Jun. 30 to Oct. 2, 2015, the traps, each having one of the attractants, were placed in an orchard where SJS had inhabited. The number of male adult insects captured in each trap was measured for every 7 days. At every measurement, the installation places of the respective traps were changed by rotation of 13 places in total, in order to minimize the effects of installation environment on the number of capture.
smiles,measurement,value
"C=C(C)CCCC(C)CCOC(=O)CC (stereo not shown) [3,7-dimethyl-7-octenyl propionate]",sex pheromone activity on the SJS,has a sex pheromone activity on the SJS
